Assay results published in patent US4666907A, “Phenothiazine and derivatives and analogs and use as leukotriene biosynthesis inhibitors” (Merck Frosst Canada, Inc., priority 1986, dated 1987).
In brackets after ≈: the same amount, converted by molar mass. Like-named read-outs stand apart in the source and are kept apart here.

Columns and labels:
[1] = tested on: LTB4 formation in rat PMN; assay: Rat polymorphonuclear leukocyte (P.M.N.) assay, LTB4 formation; type: cell-based; conditions: A-23187, LTB4
Description: Rats under ether anesthesia are injected (i.p.) with 8 ml of a suspension of sodium caseinate (6 grams in ca. 50 ml water). After 15-24 hours the rats are sacrificed (CO2) and the cells from the peritoneal cavity are recovered by lavage with 20 ml of buffer (Eages MEM containing 30 mM HEPES adjusted to pH 7.4 with NaOH). The cells are pelleted (350×g, 5 min.), resuspended in buffer with vigorous shaking, filtered through lens paper, recentrifuged and finally suspended in buffer at a concentration of […]. A 500 μl aliquot of PMN suspension and test compound are preincubated for 2 minutes at 37° C., followed by the addition of 10 μM A-23187. The suspension is stirred for an additional 4 minutes then bioassayed for LTB4 content by adding an aliquot to a second 500 μl portion of the PMN at 37° C. The LTB4 produced in the first incubation causes aggregation of the second PMN, which is measured as a change in light transmission. The size of the assay aliquot is chosen to give a submaximal transmission change (usually […]) for the untreated control. The percentage inhibition of LTB4 formation is calculated from the ratio of transmission change in the sample to the transmission change in the compound-free control.

[2] = tested on: sensitized guinea pig trachea; assay: Antigen challenge 'in vitro' assay (egg albumin-induced contraction of sensitized tracheal chains); type: cell-based; conditions: Cavia porcellus; for inhibition at 3 µg/mL: at 3 μg/ml; for inhibition at 10 µg/mL: at 10 μg/ml
Description: Male guinea pigs weighing 300-350 g were sensitized by injecting (i.p.) 0.5 ml of a suspension containing 0.4 mg of egg albumin (Ovalbumin, Grade V, Sigma Chemical Co.) and 4.0 g aluminum hydroxide in 19.6 ml of saline. Two weeks were permitted for sensitization to occur.
Three sensitized guinea pigs were stunned and exsanguinated. The tracheas were removed, freed of adhering tissue and divided longitudinally by cutting through the cartilaginous tissue directly opposite the muscle insertion. Each opened trachea was then transected between every second cartilage. Four of the cut sections were tied together, end to end in a series with No. 0.7 silk thread ensuring that the tracheal muscles were all in the same vertical plane. Thus, each chain consisted of tissue from three different animals.
The chain so formed was then suspended under 1 g of tension (by silk ties at each end) in a 20 ml organ bath containing 10 ml of modified^1 Krebs-Henseleit buffer solution gassed with 95% O2 and 5% CO2 at 37° C. Mepyramine (0.55 μg/ml) and indomethacin (2.67 μg/ml were added to the buffer to avoid the contribution of histamine receptors and cyclooxygenase products to the contraction. To record responses one end of the tracheal chain was attached to a Gould Statham UC-2 force displacement transducer which was connected to a Beckman Type R-dynograph.The preparations were allowed to equilibrate for one hour during which time the tissues were automatically washed (10 ml volume displacement) ever 6 minutes.
After the equilibration period the tissues were primed with methacholine (3 μg/lml; 1.5×10^-5 M), washed and allowed to recover to baseline. The tissues were treated again with a second dose of methacholine, washed, allowed to return to baseline and washed for an additional hour.
Two chains were used as a control. These were incubated in a concentration of egg albumin sufficient to induce an average contraction of 50-80% of the methacholine response.
Each compound to be tested was added to two other baths (at a final concentration in each bath of 10 μg/ml or lower) 15 minutes prior to challenging the fresh chains with egg albumin.
The response of the challenged tissue was expressed as a percentage of the methacholine maximum. The % inhibition for each compound was then calculated. Compounds which at 10 μg/ml (final concentration) inhibited the egg albumin response by 50% or more were retested at a lower concentration.

[3] = tested on: Mouse peritoneal macrophages; assay: Mouse macrophage assay (zymosan-stimulated arachidonic acid metabolites, Leukotriene C4); type: cell-based; conditions: read-out: Macrophage IC50
Description: Mouse peritoneal macrophages were treated sequentially with arachidonic acid (labelled with tritium); the compound being evaluated as an inhibitor, and a stimulator (zymosan). Metabolites derived from arachidonic acid (PGE2, 6-Keto PG-F1@ and Leukotriene C4) were separated from the incubation medium by extraction and chromatography, and then quantitated by determining the amount of radioactivity (cpm) associated with each of them. […] (This protocol is identical to that described in the reference except that the radioactivity herein associated with the LTC4 was determined by counting an aliquot of the final aqueous solution directly rather than chromatographing it first).
Reference: Humes, J. L. et al., J. Biol. Chem. 257, 1591-4 (1982).

asthmatic rats = assay: Asthmatic rat assay (duration of dyspnoea after egg albumin aerosol); type: in vivo; conditions: po; for inhibition in vivo at 3 mg/kg: 3 mg/kg p.o.
Excerpt: Rats were obtained from an inbred line of asthmatic rats. Both female and male rats from 200 to 300 g were used.
Egg albumin (EA), grade V, crystallized and lyophilized, was obtained from Sigma Chemical Co., St. Louis. Bordetella pertussis vaccine, containing 30×10^9 killed bacteria per ml was obtained from the Institut Armand-Frappier, Laval des Rapides, Quebec. Aluminum hydroxide was obtained from the Regeis Chemical Company, Chicago.
The challenge and subsequent respiratory recordings were carried out in a clear plastic box with internal dimensions 10×6×4 inches. The top of the box was removable; in use, it was held firmly in place by four clamps and an airtight seal was maintained by a soft rubber gasket. […] A Fleisch No. 0000 pneumotachograph was inserted into one end of the box and coupled to a Grass volumetric pressure transducer (PT5-A) which was then connected to a Beckman Type R Dynograph through appropriate couplers. While aerosilizing the antigen, the outlets were open and the pneumotachograph was isolated from the chamber. The outlets were closed and the pneumotachograph and the chamber were connected during the recording or the respiratory patterns. For challenge, 2 ml of a 3% solution of antigen in saline was placed into each nebulizer and the aerosol was generated with air from a small Potter diaphragm pump operating at 10 psi and a flow of 8 liters/minutes.
Rats were sensitized by injection (s.c.) 1 ml of a suspension containing 1 mg EA and 200 mg aluminum hydroxide in saline. Simultaneously, they received an injection (i.p.) of 0.5 ml of B. pertussis vaccine. They were used between days 14 and 18 postsensitization. In order to eliminate the serotonin component of the response, rats were pretreated intravenously 5 minutes prior to aerosol challenge with […] methylserzide. Rats were then exposed to an aerosol of 3% EA in saline for exactly 1 minute, then their respiratory profiles were recorded for a further 25-30 minutes. The duration of continuous dyspnoea was measured from the respiratory recordings.
Compounds were generally administered either intraperitoneally 1 hour prior to challenge or orally 11/2 hours prior to challenge. They were either dissolved in dimethylsulfoxide or suspended in 0.1% methocel and 0.5% Tween 80. The volume injected has 2 ml kg^-1 (intraperitoneally) or 10 ml kg^-1 (orally). Prior to oral treatment rats were starved overnight. Their activity was determined in terms of their ability to decrease the duration of symptoms of dyspnoea in comparison with a group of vehicle-treated controls. Usually, a compound was evaluated at a series of doses and an ED50 was determined. This was defined as the dose (mg/kg) which would inhibit the duration of symptoms by 50%.

[4] = mouse peritoneal macrophages, zymosan
[5] = read-out: In Vitro Antigen Challenge % Inhibition

IC50 [1] [µg/mL]	IC50 [3, 4] [µg/mL]	SMILES	inhibition at 10 µg/mL [2, 5] [%]	other results
0.5 (≈ 1.64 µM)		CC(=O)Oc1ccc2c(c1)Sc1cccc(Cl)c1N2C [Compound 25]		inhibition at 3 µg/mL [2]: 1 to 9%
	0.1	CC(=O)Oc1ccc2c(c1Cl)Sc1ccccc1N2 [Compound 11]	100	
	0.2	CC(=O)c1ccc2c(c1)Nc1ccccc1S2 [Compound 8]	60	
	5	CC(=O)N1c2ccccc2Sc2ccccc21 [Compound 21]		
0.005 to 0.05 (≈ 0.015 to 0.15 µM)		CC(C)C(=O)Oc1ccc2c(c1Cl)Sc1ccccc1N2C [Compound 27]		inhibition at 3 µg/mL [2]: 6%
1 (≈ 3.27 µM)	1	COc1ccc2c(c1Cl)Sc1ccccc1N2C(C)=O [Compound 22]	91	

Second part, the compound before the results:

SMILES	IC50 [1] [µg/mL]	IC50 [3, 4] [µg/mL]	inhibition at 10 µg/mL [2, 5] [%]	other results
O=[N+]([O-])c1ccc2c(c1)Sc1cc([N+](=O)[O-])ccc1N2 [Compound 15]		0.0016 to 0.008	21	
Oc1ccc2c(c1)Sc1ccccc1N2 [Compound 6]	0.016 (≈ 0.0743 µM)	0.1 to 1	100	
Cc1ccc(S(=O)(=O)Oc2ccc3c(c2Cl)Sc2ccccc2N3)cc1 [Compound 10]	0.1 to 1 (≈ 0.248 to 2.48 µM)			inhibition at 3 µg/mL [2]: 14%
c1ccc2c(c1)Nc1ccccc1O2 [drawing 75]				inhibition in vivo at 1.5 mg/kg (asthmatic rats; 1.5 mg/kg p.o.): 51%
Oc1ccc2c(c1Cl)Sc1ccccc1N2 [Compound 9]	0.005 (≈ 0.02 µM)			inhibition at 3 µg/mL [2]: 97%
COc1ccc2c(c1Cl)[S+]([O-])c1ccccc1N2 (centres unmarked)				inhibition in vivo at 3 mg/kg (asthmatic rats): 56%
Cc1cccc2c1Nc1ccccc1S2 [Compound 4]		5	76	
COc1ccc2c(c1Cl)Sc1cc(F)ccc1N2C(C)=O				inhibition in vivo at 3 mg/kg (asthmatic rats): 36%
c1ccc2c(c1)Nc1ccccc1O2 [Compound 24]	5 (≈ 27.3 µM)			IC50 ([3]; Mus musculus): 0.1 µg/mL; inhibition at 1 µg/mL [2, 5]: 88%
CC(=O)N1c2ccccc2Sc2c1ccc(O)c2Cl				inhibition in vivo at 3 mg/kg (asthmatic rats): 61%
COc1ccc2c(c1Cl)Sc1cc(F)ccc1N2C				inhibition in vivo at 3 mg/kg (asthmatic rats): 42%
CN(C)c1ccc2c(c1)Sc1cc(N(C)C)ccc1N2 [Compound 17]		5		
Clc1cccc2c1Sc1ccccc1N2 [Compound 3]	0.05 to 0.5 (≈ 0.214 to 2.14 µM)	0.01 to 0.1	37	
